Measurements from article PMC5296932 (Angewandte Chemie (International ed. in English), 2016).
Starred links: 1 amine or outer side, 2 acyl side, 3 side chain; linkers in the order of their positions; H or OH if unused. Positions of bridges follow the written chain, without caps; N, C: chain ends. Non-standard residues stand in square brackets, D forms with d. Residues, ends and D or L forms follow the SMILES beside them. X1 = O=C(c1cc(CS[*:2])cc(CS[*:3])c1)[*:1]; 2Nal = N[C@@H](Cc1ccc2ccccc2c1)C(=O)O; Mpa = O=C(O)CCS

Legend:
[1] = In vitro reduction of disulfide bonds by glutathione; format: physicochemical; conditions: 5 mM glutathione, 2 h
[2] = Proteolytic stability in human serum; format: in vitro ADME

| SMILES | reduction of the disulfide bonds [1] | half-life in human serum [2] | half-life ([2]; human serum) [min] |
| --- | --- | --- | --- |
| CC(C)C[C@@H]1NC(=O)[C@H](C)NC(=O)[C@@H]2CSSCc3cc(cc(c3)C(=O)N[C@@H](CCCNC(=N)N)C(=O)N[C@@H](CCCNC(=N)N)C(=O)N[C@@H](CCCNC(=N)N)C(=O)N[C@@H](CCCNC(=N)N)C(=O)N[C@@H](Cc3ccc4ccccc4c3)C(=O)N[C@@H](Cc3ccccc3)C(=O)N2)CSSC[C@@H](C(N)=O)NC(=O)[C@H](CCC(N)=O)NC(=O)[C@H](CC(C)C)NC(=O)[C@H](Cc2c[nH]c3ccccc23)NC(=O)[C@H](CO)NC(=O)[C@H](Cc2c[nH]c3ccccc23)NC(=O)[C@H](CC(=O)O)NC1=O [Peptide 4] (RRRR[2Nal]FCALDWSWLQC-NH2; linker N-7-16 via X1) | completely reduced | ~ 10 h |  |
| CC(C)C[C@H](NC(=O)[C@H](C)NC(=O)[C@@H]1CSSCCC(=O)N[C@@H](CCCNC(=N)N)C(=O)N[C@@H](CCCNC(=N)N)C(=O)N[C@@H](CCCNC(=N)N)C(=O)N[C@@H](CCCNC(=N)N)C(=O)N[C@@H](Cc2ccc3ccccc3c2)C(=O)N[C@@H](Cc2ccccc2)C(=O)N1)C(=O)N[C@@H](CC(=O)O)C(=O)N[C@@H](Cc1c[nH]c2ccccc12)C(=O)N[C@@H](CO)C(=O)N[C@@H](Cc1c[nH]c2ccccc12)C(=O)N[C@@H](CC(C)C)C(=O)N[C@@H](CCC(N)=O)C(=O)N[C@H](C(N)=O)[C@@H](C)O [Peptide 6] ([Mpa]RRRR[2Nal]FCALDWSWLQT-NH2; disulfide 1-8; C-terminus assumed) |  |  | ~30 |
